Assay results from paper PMC2606621 (Journal of neurochemistry, 2008).
Read-outs that look alike come from different tables or passages of the source. Values belong to the molecule of their own block, whether it stands above or below them.

Experiments:
CB1 receptor = conditions: ref Hill et al., cited from earlier work
cannabinoid CB1 receptor = cannabinoid CB1 receptor (Rattus norvegicus, UniProt P20272); assay: CB1 receptor binding assay; assay type: in vivo; conditions: for effect on Bmax of the CB1 receptor: imipramine alone
Sequence of cannabinoid CB1 receptor (P20272 whole entry): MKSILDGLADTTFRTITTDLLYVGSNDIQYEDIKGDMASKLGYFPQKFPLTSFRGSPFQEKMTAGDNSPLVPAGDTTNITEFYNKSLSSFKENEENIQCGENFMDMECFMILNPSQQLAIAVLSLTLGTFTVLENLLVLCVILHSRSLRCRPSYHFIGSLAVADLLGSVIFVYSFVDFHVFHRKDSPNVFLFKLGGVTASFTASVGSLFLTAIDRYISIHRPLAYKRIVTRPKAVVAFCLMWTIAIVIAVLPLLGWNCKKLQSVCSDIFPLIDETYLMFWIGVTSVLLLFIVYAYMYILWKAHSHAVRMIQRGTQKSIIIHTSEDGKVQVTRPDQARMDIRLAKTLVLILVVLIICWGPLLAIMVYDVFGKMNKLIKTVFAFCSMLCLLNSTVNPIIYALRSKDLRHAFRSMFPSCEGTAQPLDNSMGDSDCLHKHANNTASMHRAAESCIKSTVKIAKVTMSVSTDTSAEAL

[1] = test system: endocannabinoids AEA and 2-AG; assay: Plasma endocannabinoid content; assay type: in vivo, rat; conditions: imipramine 10 mg/kg, 21 days; p > 0.05
[2] = molecular target: T1, fatty acid amide hydrolase (FAAH) (Rattus norvegicus, UniProt P97612); assay: Fatty acid amide hydrolase activity assay; assay type: in vivo; conditions: for effect on Vmax of FAAH: combination of CUS and imipramine, p < 0.05; for Km: read-out: binding affinity (Km) of fatty acid amide hydrolase for anandamide
T1 sequence (P97612 1-579): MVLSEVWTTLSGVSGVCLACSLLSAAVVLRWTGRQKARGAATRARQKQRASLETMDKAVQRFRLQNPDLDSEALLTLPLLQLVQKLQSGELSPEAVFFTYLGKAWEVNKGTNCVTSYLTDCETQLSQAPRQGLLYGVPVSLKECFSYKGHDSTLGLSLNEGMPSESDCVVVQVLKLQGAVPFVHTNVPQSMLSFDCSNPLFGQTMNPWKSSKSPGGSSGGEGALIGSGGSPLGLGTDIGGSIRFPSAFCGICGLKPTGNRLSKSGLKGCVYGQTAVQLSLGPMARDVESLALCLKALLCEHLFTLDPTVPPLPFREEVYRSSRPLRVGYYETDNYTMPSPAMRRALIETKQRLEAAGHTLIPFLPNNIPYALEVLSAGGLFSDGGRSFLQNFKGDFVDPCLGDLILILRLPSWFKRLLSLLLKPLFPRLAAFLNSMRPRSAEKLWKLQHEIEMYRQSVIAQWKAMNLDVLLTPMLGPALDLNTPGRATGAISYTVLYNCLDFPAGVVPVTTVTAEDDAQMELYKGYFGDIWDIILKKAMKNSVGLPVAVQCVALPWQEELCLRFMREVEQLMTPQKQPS

[3] = test system: endocannabinoids AEA and 2-AG; assay: Brain tissue endocannabinoid content; conditions: imipramine alone; any brain region examined

Compound: C[C@]12C[C@H](O)[C@H]3[C@@H](CCC4=CC(=O)CC[C@@]43C)[C@@H]1CC[C@@H]2C(=O)CO [corticosterone]
effect on CB1 receptor binding and protein expression (CB1 receptor; hippocampus, 21 days administration, absence of stress, 2008a): comparable reduction

Compound: CNCCCN1c2ccccc2CCc2ccccc21 [desipramine]
effect on CB1 receptor binding (CB1 receptor; hippocampus of unstressed rats, 2006): up-regulation
effect on CB1 receptor agonist binding site density (CB1 receptor; hypothalamus, unstressed rats, chronic treatment, 2006): increases

effect on Bmax of the CB1 receptor (increase) (cannabinoid CB1 receptor; amygdala, CUS and imipramine combined, p > 0.05): did not occur
effect on Bmax of the CB1 receptor (cannabinoid CB1 receptor; amygdala, p < 0.05): increase
effect on CB1 receptor agonist binding site density (Bmax) (cannabinoid CB1 receptor; hippocampus, imipramine 10 mg/kg, 21 days (ANOVA main effect)): unaffected
effect on Bmax for [3H]CP55940 binding to the CB1 receptor (cannabinoid CB1 receptor; hypothalamus, CUS and imipramine together vs control, p > 0.05): no significant difference
effect on CB1 receptor binding site density (Bmax) (cannabinoid CB1 receptor; midbrain, imipramine 10 mg/kg, 21 days, p < 0.05): significant reduction
effect on agonist binding site density (Bmax) of the CB1 receptor (cannabinoid CB1 receptor; prefrontal cortex, imipramine 10 mg/kg, 21 days (ANOVA main effect)): no effect
effect on Bmax of the CB1 receptor (reduction) (cannabinoid CB1 receptor; ventral striatum, CUS and imipramine concurrently, p > 0.05): not seen
effect on Bmax of the CB1 receptor (cannabinoid CB1 receptor; ventral striatum, p < 0.01): significant reductions
effect on maximal hydrolytic activity (Vmax) of FAAH ([2]; imipramine alone, any brain region examined): no effects
effect on Vmax of FAAH ([2]; midbrain): increased
Km ([2]; Amygdala, CON/IMI (no stress, imipramine 10 mg/kg, 21 days)): 0.95 nM
Km ([2]; Amygdala, CUS/IMI (21 days CUS + imipramine 10 mg/kg)): 0.53 nM
Km ([2]; Hippocampus, CON/IMI (no stress, imipramine 10 mg/kg, 21 days)): 0.8 nM
Km ([2]; Hippocampus, CUS/IMI (21 days CUS + imipramine 10 mg/kg)): 0.71 nM
Km ([2]; Hypothalamus, CON/IMI (no stress, imipramine 10 mg/kg, 21 days)): 0.44 nM
Km ([2]; Hypothalamus, CUS/IMI (21 days CUS + imipramine 10 mg/kg)): 0.55 nM
Km ([2]; Midbrain, CON/IMI (no stress, imipramine 10 mg/kg, 21 days)): 0.6 nM
Km ([2]; Midbrain, CUS/IMI (21 days CUS + imipramine 10 mg/kg)): 0.61 nM
Km ([2]; Prefrontal Cortex, CON/IMI (no stress, imipramine 10 mg/kg, 21 days)): 0.65 nM
Km ([2]; Prefrontal Cortex, CUS/IMI (21 days CUS + imipramine 10 mg/kg)): 0.46 nM
Km ([2]; Ventral Striatum, CON/IMI (no stress, imipramine 10 mg/kg, 21 days)): 0.37 nM
Km ([2]; Ventral Striatum, CUS/IMI (21 days CUS + imipramine 10 mg/kg)): 0.69 nM
effect on Vmax of FAAH ([2]; ventral striatum): increased
Compound: CN(C)CCCN1c2ccccc2CCc2ccccc21 [imipramine]
effect on plasma 2-AG content [1]: unaffected
effect on plasma AEA content [1]: neither an effect
effect on tissue AEA content [3]: no effect
